According to PubChem BioAssay (NCI):
Values joined by “and” are separate entries in the source; they are usually repeats but may differ in a detail not shown here. Equal values may be shown once.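 The concentration for 50% growth inhibition is given as GI50. Definition used: TGI = concentration required for complete inhibition of growth.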

Assays:
Experiment in all cases: NCI anticancer screen, dose series, 384-well format
[1] = system: DU-145 prostate
[2] = system: CAKI-1 renal
[3] = system: RPMI-8226 leukemia
[4] = system: COLO 205 colon
[5] = system: MCF7 breast
[6] = system: SF-539 CNS
[7] = system: SK-OV-3 ovarian
[8] = system: NCI-H322M lung
[9] = system: CCRF-CEM leukemia
[10] = system: MOLT-4 leukemia
[11] = system: PC-3 prostate
[12] = system: SN12C renal
[13] = system: K-562 leukemia
[14] = system: RXF 393 renal
[15] = system: SW-620 colon
[16] = system: M14 melanoma
[17] = system: 786-0 renal
[18] = system: UO-31 renal
[19] = system: NCI-H226 lung
[20] = system: NCI-H23 lung
[21] = system: HS 578T breast
[22] = system: OVCAR-3 ovarian
[23] = system: MDA-MB-435 melanoma
[24] = system: LOX IMVI melanoma
[25] = system: UACC-257 melanoma
[26] = system: A498 renal
[27] = system: MDA-MB-231 breast
[28] = system: BT-549 breast
[29] = system: NCI/ADR-RES ovarian
[30] = system: SK-MEL-28 melanoma
[31] = system: NCI-H460 NSCLC
[32] = system: T-47D breast
[33] = system: HCT-15 colon
[34] = system: OVCAR-5 ovarian
[35] = system: TK-10 renal
[36] = system: SF-268 CNS
[37] = system: MDA-MB-468 breast
[38] = system: OVCAR-8 ovarian
[39] = system: SR leukemia
[40] = system: NCI-H522 lung
[41] = system: EKVX NSCLC
[42] = system: SF-295 CNS
[43] = system: MALME-3M melanoma
[44] = system: SNB-75 CNS
[45] = system: ACHN renal
[46] = system: OVCAR-4 ovarian
[47] = system: HL-60(TB) leukemia
[48] = system: HOP-92 NSCLC
[49] = system: UACC-62 melanoma
[50] = system: SK-MEL-5 melanoma
[51] = system: U251 glioblastoma
[52] = system: HOP-62 NSCLC
[53] = system: HCC-2998 colon
[54] = system: IGROV1 ovarian
[55] = system: HT29 colon
[56] = system: A549 NSCLC
[57] = system: SNB-19 CNS
[58] = system: HCT-116 colon
[59] = system: SK-MEL-2 melanoma
[60] = system: KM12 colon

For COc1cccc2c1C(=O)c1c(O)c3c(c(O)c1C2=O)C[C@@](O)(C(=O)CO)C[C@@H]3OC1CC(N)C(O)C(C)O1 (stereo partly specified), the GI50 [1] was 33.7 nM and 18.5 nM, the TGI [1] was 148 nM and 214 nM and the GI50 [2] was 41.9 nM and 25 nM. The TGI [2] was 504 nM and 160 nM, the GI50 [3] was 7.64 nM and 11.2 nM and < 10 nM and the TGI [3] was 40.3 nM and 24.6 nM and 21.9 nM. The GI50 [4] was 17.8 nM, the TGI [4] was 328 nM and 179 nM and the GI50 [5] was 34 nM and 22.8 nM and 19.1 nM. The TGI [5] was 3210 nM and 1370 nM and 12200 nM, the GI50 [6] was 39.9 nM and 34.8 nM and 35.8 nM and the TGI [6] was 264 nM and 168 nM and 173 nM. The GI50 [7] was 68.1 nM and 75.6 nM and 80.2 nM, the TGI [7] was 334 nM and 377 nM and 409 nM and the GI50 [8] was 365 nM and 270 nM and 326 nM. For the same compound, the TGI [8] was 985 nM and 914 nM and 1830 nM, the GI50 [9] was 8.6 nM and < 11.2 nM and < 10 nM and the TGI [9] was 27.4 nM and 19.4 nM and 17.7 nM. For the same compound, the GI50 [10] was 4.08 nM and < 10 nM, the TGI [10] was 7.81 nM and the GI50 [11] was 189 nM and 154 nM and 139 nM. For the same compound, the TGI [11] was 765 nM and 626 nM and 467 nM, the GI50 [12] was 35.8 nM and 31.4 nM and 33.5 nM and the TGI [12] was 162 nM and 166 nM and 181 nM. For the same compound, the GI50 [13] was 39.7 nM and 43.9 nM and 45.6 nM, the TGI [13] was 340 nM and 245 nM and 229 nM and the GI50 [14] was 37.2 nM and 41 nM and 117 nM. The TGI [14] was 211 nM and 114 nM and 274 nM, the GI50 [15] was 23.3 nM and 44.8 nM and 19.6 nM and the TGI [15] was 463 nM and 741 nM and 501 nM. For the same compound, the GI50 [16] was 51.6 nM and 44.6 nM and 37.1 nM, the TGI [16] was 200 nM and 182 nM and 190 nM and the GI50 [17] was 42.9 nM and 25.3 nM and 46.5 nM. The TGI [17] was 227 nM and 226 nM and 1070 nM, the GI50 [18] was 360 nM and 508 nM and 907 nM and the TGI [18] was 1630 nM and 1530 nM and 2280 nM. For the same compound, the GI50 [19] was 34.4 nM and 36.8 nM and 75.2 nM, the TGI [19] was 131 nM and 156 nM and 299 nM and the GI50 [20] was 43 nM and 27.4 nM and 28.5 nM. For the same compound, the TGI [20] was 126 nM and 89 nM and 133 nM, the GI50 [21] was 16.7 nM and 26.9 nM and 109 nM and the TGI [21] was 133 nM and 141 nM and 322 nM. For the same compound, the GI50 [22] was 73.4 nM and 116 nM, the TGI [22] was 539 nM and 821 nM and the GI50 [23] was 219 nM and 232 nM and 150 nM. For the same compound, the TGI [23] was 632 nM and 669 nM and 599 nM, the GI50 [24] was 32 nM and 23.9 nM and 21.9 nM and the TGI [24] was 235 nM and 157 nM and 163 nM. The GI50 [25] was 109 nM and 118 nM and 125 nM, the TGI [25] was 389 nM and 255 nM and 261 nM and the GI50 [26] was 38.2 nM and 30.6 nM and 50.9 nM. The TGI [26] was 472 nM and 184 nM and 244 nM, the GI50 [27] was 81.5 nM and 43.4 nM and 36.9 nM and the TGI [27] was 523 nM and 275 nM and 318 nM. The GI50 [28] was 23.3 nM and 18.2 nM and 13.6 nM, the TGI [28] was 128 nM and 70.2 nM and 130 nM and the GI50 [29] was 5900 nM and 7690 nM and 22600 nM. The TGI [29] was 24300 nM and 34300 nM and > 100000 nM, the GI50 [30] was 84.4 nM and 72.7 nM and 101 nM and the TGI [30] was 336 nM and 208 nM and 237 nM. For the same compound, the GI50 [31] was 9.14 nM, the TGI [31] was 86.1 nM and 98.9 nM and the GI50 [32] was 32.9 nM and 32 nM and 40.8 nM. The GI50 [33] was 202 nM and 111 nM and 89 nM, the TGI [33] was 2130 nM and 1360 nM and 1490 nM and the GI50 [34] was 194 nM and 260 nM and 159 nM. The TGI [34] was 1040 nM and 2130 nM and 720 nM, the GI50 [35] was 78 nM and 88.7 nM and the TGI [35] was 461 nM and 328 nM. The GI50 [36] was 35.2 nM and 32.6 nM and 36.3 nM, the TGI [36] was 207 nM and 138 nM and 213 nM and the GI50 [37] was 26.2 nM and 14.8 nM and 12.7 nM. For the same compound, the TGI [37] was 70 nM and 36.6 nM and 28.3 nM, the GI50 [38] was 76.4 nM and 55.9 nM and 58 nM and the TGI [38] was 466 nM and 236 nM and 223 nM. The GI50 [39] was 4 nM, the TGI [39] was 7.78 nM and the GI50 [40] was 25.3 nM and 18 nM and 11.1 nM. The TGI [40] was 75.6 nM and 69.7 nM and 117 nM, the GI50 [41] was 165 nM and 248 nM and 419 nM and the TGI [41] was 704 nM and 1280 nM and 4790 nM. For the same compound, the GI50 [42] was 49.2 nM and 32.3 nM and 52.2 nM, the TGI [42] was 169 nM and 135 nM and 447 nM and the GI50 [43] was 38.1 nM and 45.6 nM and 54.7 nM. The TGI [43] was 153 nM and 166 nM and 191 nM, the GI50 [44] was 40.3 nM and 31.7 nM and 43.3 nM and the TGI [44] was 126 nM and 100 nM and 174 nM. The GI50 [45] was 69.2 nM and 64 nM and 171 nM, the TGI [45] was 407 nM and 287 nM and 591 nM and the GI50 [46] was 310 nM and 246 nM and 263 nM. The TGI [46] was 983 nM and 954 nM and 1910 nM, the GI50 [47] was 5.95 nM and < 10 nM and the TGI [47] was 14.5 nM and 11.8 nM. For the same compound, the GI50 [48] was 24.6 nM and 35.9 nM and 66.9 nM, the GI50 [49] was 25.3 nM and 28.6 nM and 14.8 nM and the TGI [49] was 133 nM and 155 nM and 142 nM. The GI50 [50] was 41.1 nM and 13.1 nM, the TGI [50] was 166 nM and 58.6 nM and the GI50 [51] was 20 nM and 18.4 nM and 14.3 nM. For the same compound, the GI50 [52] was 40.6 nM and 23.8 nM and 34.4 nM, the TGI [52] was 145 nM and 91.6 nM and 125 nM and the GI50 [53] was 35.6 nM and 17.6 nM. For the same compound, the TGI [53] was 176 nM and 92.6 nM, the GI50 [54] was 72.5 nM and 46.7 nM and the TGI [54] was 1220 nM and 231 nM. The GI50 [55] was 114 nM and 119 nM and 106 nM, the TGI [55] was 490 nM and 303 nM and 263 nM and the GI50 [56] was 58.7 nM and 26.3 nM and 41.3 nM. For the same compound, the TGI [56] was 473 nM and 188 nM and 222 nM, the GI50 [57] was 36.2 nM and 32.2 nM and 34.3 nM and the GI50 [58] was 29.4 nM and 16.5 nM. The TGI [58] was 972 nM and 151 nM, the GI50 [59] was 56.5 nM and 86 nM and 68.1 nM and the TGI [59] was 128 nM and 179 nM and 130 nM. For the same compound, the GI50 [60] was 39.6 nM and 41 nM and the TGI [60] was 423 nM and 212 nM.
